The source made the active and inactive calls.
Experiments:
[1] = molecular target: T1, Apoptotic protease-activating factor 1 (Homo sapiens, UniProt O14727); type: functional
T1 sequence (O14727 whole entry): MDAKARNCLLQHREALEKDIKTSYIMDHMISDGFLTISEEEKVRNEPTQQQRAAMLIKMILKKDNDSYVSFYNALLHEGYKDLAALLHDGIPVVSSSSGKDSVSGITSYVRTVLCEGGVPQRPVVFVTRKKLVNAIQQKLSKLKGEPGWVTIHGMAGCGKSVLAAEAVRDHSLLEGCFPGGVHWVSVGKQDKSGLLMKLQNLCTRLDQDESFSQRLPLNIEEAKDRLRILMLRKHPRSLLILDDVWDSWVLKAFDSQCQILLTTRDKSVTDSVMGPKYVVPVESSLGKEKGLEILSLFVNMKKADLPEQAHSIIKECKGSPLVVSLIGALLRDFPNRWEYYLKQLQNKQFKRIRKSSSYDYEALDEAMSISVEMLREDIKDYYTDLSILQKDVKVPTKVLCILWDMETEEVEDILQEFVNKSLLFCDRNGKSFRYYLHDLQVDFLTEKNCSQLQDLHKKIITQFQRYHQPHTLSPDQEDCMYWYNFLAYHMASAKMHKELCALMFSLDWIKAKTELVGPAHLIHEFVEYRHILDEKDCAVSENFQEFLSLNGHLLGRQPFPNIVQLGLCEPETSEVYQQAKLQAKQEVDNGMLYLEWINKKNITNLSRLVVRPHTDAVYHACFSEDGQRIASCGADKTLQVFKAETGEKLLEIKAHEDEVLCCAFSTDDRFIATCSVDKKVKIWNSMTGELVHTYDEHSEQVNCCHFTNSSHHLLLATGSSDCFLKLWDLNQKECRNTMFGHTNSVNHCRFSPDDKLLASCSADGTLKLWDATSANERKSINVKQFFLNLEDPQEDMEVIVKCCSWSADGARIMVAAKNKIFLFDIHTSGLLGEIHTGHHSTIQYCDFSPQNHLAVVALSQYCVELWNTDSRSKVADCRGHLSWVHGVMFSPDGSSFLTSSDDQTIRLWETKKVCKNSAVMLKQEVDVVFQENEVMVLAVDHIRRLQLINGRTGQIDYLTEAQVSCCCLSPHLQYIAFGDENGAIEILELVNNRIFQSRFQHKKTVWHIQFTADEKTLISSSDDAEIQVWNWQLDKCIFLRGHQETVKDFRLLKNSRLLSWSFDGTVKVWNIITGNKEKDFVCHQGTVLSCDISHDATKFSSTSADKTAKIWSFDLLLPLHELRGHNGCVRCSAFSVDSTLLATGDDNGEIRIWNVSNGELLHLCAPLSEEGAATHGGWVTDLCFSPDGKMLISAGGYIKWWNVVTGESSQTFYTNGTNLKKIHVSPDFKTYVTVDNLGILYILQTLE

[2] = off-target signal loss in HeLa-CEM21 co-culture – HeLa F-luc CTL cells, cherry-picked, counter-screen for HIV-1 Env fusion inhibitor project, dose response (AID 652040); type: functional, cell-based;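 further: potency for signal decrease marking cytotoxic or nonspecific inhibition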
[3] = ZM109 Env clade C HIV-1 fusion inhibitors, dose response, HeLa effector, CEM target cells, luciferase, cherry-pick (AID 652058); type: functional, cell-based
[4] = inhibitors of clade B AD8 Env fusion, dose response, cell-based, cherry-pick (AID 652062); type: functional;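 further: luciferase signal from cell-cell fusion driven by HIV-1 clade B AD8 Env; potency is for inhibitors of fusion seen as a drop in luminescence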
[5] = molecular target: T2, Long-chain-fatty-acid--AMP ligase FadD28 (Mycobacterium tuberculosis, UniProt P9WQ59); test: Fluorescence polarization aasay to screen for inhibitors that compete for the binding of FadD28 to a bisubstrate Measured in Biochemical System Using Plate Reader - 2147-01_Inhibitor_Dose_CherryPick_Activity.; type: functional, Mycobacterium tuberculosis H37Rv
T2 sequence (P9WQ59 whole entry): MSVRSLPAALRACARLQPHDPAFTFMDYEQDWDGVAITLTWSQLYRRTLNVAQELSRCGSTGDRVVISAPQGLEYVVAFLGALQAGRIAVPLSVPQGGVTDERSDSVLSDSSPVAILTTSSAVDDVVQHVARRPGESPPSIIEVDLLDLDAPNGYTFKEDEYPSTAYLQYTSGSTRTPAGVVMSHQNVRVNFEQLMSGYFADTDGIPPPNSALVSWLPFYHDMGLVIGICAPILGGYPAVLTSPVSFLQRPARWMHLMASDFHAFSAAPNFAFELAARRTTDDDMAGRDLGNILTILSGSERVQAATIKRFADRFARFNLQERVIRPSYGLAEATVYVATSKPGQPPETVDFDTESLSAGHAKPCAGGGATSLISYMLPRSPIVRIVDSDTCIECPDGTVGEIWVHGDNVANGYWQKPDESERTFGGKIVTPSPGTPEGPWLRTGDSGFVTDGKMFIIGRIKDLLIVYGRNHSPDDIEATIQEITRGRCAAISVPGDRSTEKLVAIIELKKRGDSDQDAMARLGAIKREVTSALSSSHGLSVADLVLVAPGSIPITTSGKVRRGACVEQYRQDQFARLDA

[6] = molecular target: T3, Type-1 angiotensin II receptor (Homo sapiens, UniProt P30556); test: AT1 receptor antagonists, dose response, selectivity assay for APJ receptor antagonist project, cell-based, uHTS hits (AID 463214); type: functional;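 further: antagonist potency against angiotensin II stimulated AT1 response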
T3 sequence (P30556 whole entry): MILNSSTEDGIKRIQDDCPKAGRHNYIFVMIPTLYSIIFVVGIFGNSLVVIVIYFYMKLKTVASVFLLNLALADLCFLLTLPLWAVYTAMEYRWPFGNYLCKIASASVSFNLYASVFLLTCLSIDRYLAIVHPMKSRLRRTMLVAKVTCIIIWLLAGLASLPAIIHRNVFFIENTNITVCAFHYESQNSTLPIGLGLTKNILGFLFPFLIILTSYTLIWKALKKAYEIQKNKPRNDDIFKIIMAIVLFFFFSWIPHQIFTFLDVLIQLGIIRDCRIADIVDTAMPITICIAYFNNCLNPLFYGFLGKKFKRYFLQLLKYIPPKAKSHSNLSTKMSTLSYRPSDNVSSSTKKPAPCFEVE

[7] = molecular target: Beta-galactosidase (Escherichia coli, UniProt Q8VNN2); test: PubChem AID 485352; type: functional
Beta-galactosidase, sequence (Q8VNN2 whole entry): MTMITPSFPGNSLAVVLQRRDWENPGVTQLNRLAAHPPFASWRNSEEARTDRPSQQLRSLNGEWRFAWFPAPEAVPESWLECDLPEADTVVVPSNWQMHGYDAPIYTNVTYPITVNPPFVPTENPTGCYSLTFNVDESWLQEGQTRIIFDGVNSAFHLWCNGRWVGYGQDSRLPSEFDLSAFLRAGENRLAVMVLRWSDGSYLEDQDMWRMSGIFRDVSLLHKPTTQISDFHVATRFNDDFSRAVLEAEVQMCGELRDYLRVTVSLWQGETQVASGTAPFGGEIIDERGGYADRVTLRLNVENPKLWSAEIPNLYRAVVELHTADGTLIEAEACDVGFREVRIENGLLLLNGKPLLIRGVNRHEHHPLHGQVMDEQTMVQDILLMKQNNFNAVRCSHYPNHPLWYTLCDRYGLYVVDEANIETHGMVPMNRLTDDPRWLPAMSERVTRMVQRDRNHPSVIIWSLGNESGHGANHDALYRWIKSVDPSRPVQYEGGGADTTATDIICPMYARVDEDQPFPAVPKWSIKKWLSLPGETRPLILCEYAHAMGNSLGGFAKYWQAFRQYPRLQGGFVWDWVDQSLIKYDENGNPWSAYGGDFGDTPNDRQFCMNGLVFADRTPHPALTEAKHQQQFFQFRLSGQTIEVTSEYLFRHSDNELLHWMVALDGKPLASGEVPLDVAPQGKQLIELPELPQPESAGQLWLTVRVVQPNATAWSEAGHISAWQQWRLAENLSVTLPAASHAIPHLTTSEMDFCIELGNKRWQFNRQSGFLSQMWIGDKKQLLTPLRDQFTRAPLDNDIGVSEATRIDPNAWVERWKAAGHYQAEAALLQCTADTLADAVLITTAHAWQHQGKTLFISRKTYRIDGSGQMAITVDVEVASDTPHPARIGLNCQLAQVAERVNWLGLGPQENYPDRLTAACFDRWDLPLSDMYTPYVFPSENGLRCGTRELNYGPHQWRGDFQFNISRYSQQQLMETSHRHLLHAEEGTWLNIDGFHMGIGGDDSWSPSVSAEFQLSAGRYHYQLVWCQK

[8] = molecular target: T4, Sentrin-specific protease 8 (Homo sapiens, UniProt Q96LD8); type: functional
T4 sequence (Q96LD8 whole entry): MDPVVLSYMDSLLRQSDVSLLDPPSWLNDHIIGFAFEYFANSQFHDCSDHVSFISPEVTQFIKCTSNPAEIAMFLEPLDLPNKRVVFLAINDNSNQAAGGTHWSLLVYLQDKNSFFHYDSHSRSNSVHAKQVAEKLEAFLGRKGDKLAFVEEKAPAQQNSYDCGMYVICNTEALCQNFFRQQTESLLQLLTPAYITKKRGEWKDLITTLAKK

[9] = molecular target: T4, Sentrin-specific protease 8; type: functional; remark: listed apart in the source
[10] = system: SN12K1; test: cells; type: functional; conditions: Homo sapiens
[11] = system: P388/ADR; test: cells; type: functional; conditions: Mus musculus
[12] = intracellular Trypanosoma cruzi inhibitors in host cells – cell-based, plate reader, cherry-pick samples, set 3, dose response (AID 651818); type: functional;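 further: compounds incubated with infected cells for about four days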
[13] = miR-122 activators in hepatoma reporter cells, dose response, cell-based, Huh7 psiCHECK-miR122, Renilla luciferase, cherry-picked (AID 651956); type: functional;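 further: huh7 hepatoma cells stably carrying a psiCHECK-2 miR-122 sensor plasmid; renilla luciferase signal reporting endogenous miR-122 activity after 48 h compound exposure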
[14] = molecular target: T5, Replicative DNA helicase DnaB (Mycobacterium tuberculosis, UniProt P9WMR3); test: DnaB intein splicing inhibitors, dose response, biochemical, cell-free fluorescence (AID 449749); type: functional
T5 sequence (P9WMR3 whole entry): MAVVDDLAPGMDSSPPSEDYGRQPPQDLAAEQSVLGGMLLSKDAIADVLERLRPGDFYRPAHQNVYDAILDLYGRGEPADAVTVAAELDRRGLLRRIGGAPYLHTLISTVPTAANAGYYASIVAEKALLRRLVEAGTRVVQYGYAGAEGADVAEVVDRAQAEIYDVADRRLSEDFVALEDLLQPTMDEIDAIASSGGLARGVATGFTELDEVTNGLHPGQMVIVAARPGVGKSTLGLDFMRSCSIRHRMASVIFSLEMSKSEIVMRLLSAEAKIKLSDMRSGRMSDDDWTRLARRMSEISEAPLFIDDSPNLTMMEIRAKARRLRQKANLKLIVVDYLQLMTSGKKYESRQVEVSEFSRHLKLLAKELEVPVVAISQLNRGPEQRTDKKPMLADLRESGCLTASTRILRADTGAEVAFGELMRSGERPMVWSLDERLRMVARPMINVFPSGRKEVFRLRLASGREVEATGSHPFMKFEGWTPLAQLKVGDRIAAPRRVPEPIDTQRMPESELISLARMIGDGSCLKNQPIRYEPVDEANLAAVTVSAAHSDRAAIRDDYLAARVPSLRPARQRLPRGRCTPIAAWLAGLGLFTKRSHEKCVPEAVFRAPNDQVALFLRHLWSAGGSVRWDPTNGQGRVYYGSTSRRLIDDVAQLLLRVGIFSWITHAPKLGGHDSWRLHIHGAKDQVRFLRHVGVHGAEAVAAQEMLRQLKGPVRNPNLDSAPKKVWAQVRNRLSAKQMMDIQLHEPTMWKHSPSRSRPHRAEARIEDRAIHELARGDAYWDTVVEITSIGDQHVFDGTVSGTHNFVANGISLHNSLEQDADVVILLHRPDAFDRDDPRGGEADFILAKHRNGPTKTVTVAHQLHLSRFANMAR

[15] = molecular target: T6, Protein RecA (Mycobacterium tuberculosis, UniProt P9WHJ3); test: Fluorescence Cell-Free Homogeneous Dose Retest to Identify Inhibitors of RecA-Intein Splicing Activity. [Related pubchem assays (depositor defined):AID2097, AID2223, AID489010, AID492950]; type: functional
T6 sequence (P9WHJ3 whole entry): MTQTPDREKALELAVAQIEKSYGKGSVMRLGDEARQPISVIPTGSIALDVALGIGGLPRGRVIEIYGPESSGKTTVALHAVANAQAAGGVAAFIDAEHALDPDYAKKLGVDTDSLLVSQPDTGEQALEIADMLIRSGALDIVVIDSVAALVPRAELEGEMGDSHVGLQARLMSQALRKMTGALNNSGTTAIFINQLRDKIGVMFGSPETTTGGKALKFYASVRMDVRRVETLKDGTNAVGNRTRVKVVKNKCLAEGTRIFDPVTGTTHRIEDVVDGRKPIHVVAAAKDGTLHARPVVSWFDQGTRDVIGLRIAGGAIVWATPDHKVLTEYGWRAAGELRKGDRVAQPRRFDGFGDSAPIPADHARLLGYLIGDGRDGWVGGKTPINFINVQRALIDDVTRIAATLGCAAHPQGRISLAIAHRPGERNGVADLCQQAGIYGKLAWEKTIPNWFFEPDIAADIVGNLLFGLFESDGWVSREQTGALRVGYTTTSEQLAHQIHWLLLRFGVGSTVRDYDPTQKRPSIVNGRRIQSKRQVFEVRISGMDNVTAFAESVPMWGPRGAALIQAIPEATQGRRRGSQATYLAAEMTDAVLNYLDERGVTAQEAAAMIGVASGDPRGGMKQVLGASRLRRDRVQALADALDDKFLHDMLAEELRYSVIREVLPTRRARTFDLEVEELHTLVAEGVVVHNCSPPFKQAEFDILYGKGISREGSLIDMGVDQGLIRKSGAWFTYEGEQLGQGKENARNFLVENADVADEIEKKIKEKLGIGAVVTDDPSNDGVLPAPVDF

[16] = Luminescence Cell-Based Dose Retest to Confirm Inhibitors of Cancer Stem Cells. [Related pubchem assays (depositor defined):AID2717, AID2721]; type: functional; conditions: Homo sapiens

SMILES: O=C(CCCN1CCc2[nH]c3ccc(F)cc3c2C1)c1ccc(F)cc1
- IC50 [1]: 7.9 µM (active)

SMILES: CC(C)NS(=O)(=O)c1ccc(OCC(=O)N2CCN(Cc3ccc4c(c3)OCO4)CC2)c(Cl)c1
- AC50 [2]: 29.7 µM (active)
- AC50 [3]: 1.86 µM (active)
- AC50 [4]: 13.4 µM (active)

SMILES: CCOc1cc(/C=C2/NC(=O)N(CC(=O)Nc3cccc(C)c3)C2=O)ccc1O
- AC50 [5]: 51.7 µM (active)

SMILES: C/C(NNC(=O)c1ccccc1O)=C1/C(=O)NC(=O)N(C2CCCCC2)C1=O
- AC50 [5]: 24.7 µM (active)

SMILES: N#CC(C#N)=CC1=C2OC(c3ccccc3)=CC(c3ccccc3)=C2CCC1
- IC50 [6]: > 40 µM (not active)
- EC50 [7]: > 40 µM (inactive)

SMILES: CSCCC(NC(=O)COc1ccccc1)C(=O)OCC(=O)c1cc2ccccc2o1 (stereo not drawn)
- IC50 [6]: 31.2 µM (not active)
- EC50 [7]: > 40 µM (inactive)

SMILES: Cc1ccc(NC(=O)CN2C(=O)S/C(=C\c3cc(C)n(-c4ccc(C(=O)O)cc4)c3C)C2=O)cc1
- AC50 [5]: 2.97 µM (active)

SMILES: COc1ccccc1NCC(=O)c1ccc(Cl)cc1
- IC50 [6]: 35.3 µM (not active)
- EC50 [7]: > 40 µM (inactive)

SMILES: O=C(NCC(c1ccco1)N1CCCC1)c1cccc(S(=O)(=O)Nc2ccc(Br)cc2)c1 (stereo not drawn)
- IC50 [1]: 45.8 µM (active)

SMILES: N#CC1(CCCN2CCCCC2)c2ccccc2CCc2ccccc21
- IC50 [8]: 43.4 µM (active)
- IC50 [9]: 35.4 µM (active)

SMILES: NC(=O)C#CC(N)=O
- GI50 [10]: 12.9 µM (inactive)
- GI50 [11]: 1.02 µM (active)

SMILES: COc1ccc(NC(=O)Nc2ccc3c(c2)C(=O)N([C@H](C)CO)C[C@H](C)[C@@H](CN(C)Cc2ccc(Cl)c(Cl)c2)OCCCC[C@@H](C)O3)cc1
- AC50 [12]: 4.1 µM (active)

SMILES: C[C@@H]1CCCCO[C@@H](CN(C)C(=O)Nc2ccc(C(F)(F)F)cc2)[C@@H](C)CN([C@H](C)CO)C(=O)c2cc(NC(=O)Nc3ccccc3)ccc2O1
- AC50 [12]: 3.75 µM (active)

SMILES: COCC(=O)N(C)C[C@H]1Oc2cc(C#Cc3cccnc3)ccc2S(=O)(=O)N([C@@H](C)CO)C[C@@H]1C
- AC50 [13]: 32.8 µM (active)

SMILES: Cc1noc(C)c1S(=O)(=O)Nc1ccc2c(c1)CC(=O)N([C@H](C)CO)C[C@H](C)[C@H](CN(C)Cc1ccc(C(=O)Nc3ccccc3N)cc1)O2
- AC50 [12]: 2.36 µM (active)

SMILES: C[C@@H]1CN([C@H](C)CO)C(=O)Cc2cc(NC(=O)Nc3cccc4ccccc34)ccc2O[C@@H]1CN(C)Cc1ccc2c(c1)OCO2
- AC50 [12]: 2.61 µM (active)

SMILES: COc1ccc(-c2cc(=O)n(-c3ccc([N+](=O)[O-])cc3)[nH]2)cc1
- IC50 [8]: 25.2 µM (active)
- AC50 [14]: 2.75 µM (active)
- EC50 [15]: 2.42 µM (active)
- IC50 [9]: 17.6 µM (active)
- AC50 [16]: 10 µM (active)

Source: ChEMBL document CHEMBL1201862, “PubChem BioAssay data set” (2004)
